These results are taken from US20030170890A1, “Pathologically modified myocardial cell, production and use thereof” (priority 1999, published 2003).

No end group written: not given here.

Common to all, as to format: cell-based
Assay [1] has as its system cardiomyocytes from the neonatal rat. As to the kind of experiment: Effect of inhibitors on DCMAG-1 translocation in the immunofluorescence test. The conditions noted are these: cells stimulated with LIF; for effect on translocation of DCMAG-1 into the sarcomere (in words): ISO and ET-1; for % dotted pattern / % filamentous pattern / % in Z-bands: ISO and ET-1 (single dosage) 48 h, without or with 30 μM LY294002, 50 μM SB 203580, 15 nM Go 6976, 50 μM PD98059, ±SEM. The protocol:
Neonatal rat cardiomyocytes were prepared as in Example 3 and seeded in a density of 1×10^5 cells per 1.5 cm well (reaction chamber in a cell culture dish). The cell culture dishes contained 1.5 cm cover glasses (Schubert und Weiβ) coated with 1% gelatin solution. The cells were incubated after 24 hours with DMEM and subsequently in maintenance medium with or without stimulus (LIF/ISO and ET-1, concentration as above for single dosage) for 48 hours.
In order to determine the signal transduction pathways required for translocation of DCMAG-1, the stimulated cells were incubated with inhibitors, namely 30 μM LY294002 (Sigma), 50 μM SB 203580 (Sigma), 15 nM Go 6976 (Alexis) or 50 μM PD98059 (NEB) for 48 h (after 24 h, the medium and inhibitors were renewed because the activity of the inhibitors was limited to 24 h in aqueous solution).
After 48 h, the cells were fixed with 4% paraformaldehyde, permeabilized with 0.2% Triton-X100 and stained with anti-DCMAG (polyclonal, own production, 1:500) or α-actinin (as control, Sigma, 1:500) and visualized with anti-mouse or anti-rabbit Cy3 (Jackson Labs, USA) in immunofluorescence. In order to measure the effect of the inhibitors, the cells were visually classified and counted.

Assay [2] deals with neonatal rat cardiomyocytes. Kind of assay: Stimulation of isolated neonatal rat cardiomyocytes, recruitment of DCMAG-1 into the sarcomere (immunofluorescence). The conditions noted are these: for Sarcomere (recruitment of DCMAG-1), 1 × stimulation: 48 hours; for DCMAG-1 stain pattern of stimulated cells (in words): immunofluorescence, anti-DCMAG-1 antibody. From the text: Primary cardiomyocytes were isolated from neonatal rats to carry out a hypertrophy experiment. The rats were from one to seven days old and were sacrificed by cervical dislocation. To isolate the cardiomyocytes, the ventricles of the contracting hearts were removed and dissociated using the “Neonatal Cardiomyocyte Isolation System” (Worthington Biochemicals Corporation, Lakewood, N.J.). […] The next day, the trypsin treatment was stopped by adding a trypsin inhibitor, and then a collagenase treatment was carried out at 37° C. for 45 minutes. The cells were dissociated by pipetting, passed through a “cell strainer” (70 μm) and centrifuged at 60×g twice for 5 min. The cell pellet was then taken up in 20 ml of conventional adhesion medium. Seeding took place at a density of 6×10^4 cells/cm^2 on gelatin-coated (Sigma, Deisenhofen) tissue culture dishes or cover glasses. The next morning, the medium was removed by aspiration and, after washing with DMEM (conventional cell culture medium) twice, replaced by cultivation medium.
The cells were stimulated two to six hours after the medium was changed. This was done by treating the cardiomyocytes with various stimulants or combinations of stimulants (see Table 1) for 48 hours, followed by analysis. It was possible to observe the progress of a single stimulation on the basis of the morphological changes in the cells (hypertrophy). Besides the morphological changes, immunofluorescence analyses were also used to determine hypertrophy parameters (DCMAG-1 recruitment).
For the immunofluorescence analysis, the stimulated cardiomyocytes were washed twice with cold PBS and fixed with 3% paraformaldehyde solution in PBS for 20 minutes. After washing again with cold PBS, the cells were incubated twice with 100 mM ammonium chloride in PBS, for 10 min each time, at room temperature. This was followed by a further washing step with cold PBS and incubation with 0.2% Triton-X 100 in PBS at room temperature for 5 min. Washing twice with 0.1% gelatin in PBS was followed by incubation with the first antibody at 37° C. in a “humidity chamber” known to the skilled worker. The first antibody (against the second domain of DCMAG-1) was diluted 1/500 in incubation solution (0.5% Tween-20; 0.5% BSA; in PBS). This was followed after one hour by three washing steps with PBS at room temperature for 5 min each time. The second antibody (obtained from goat, directed against rabbit, Cy3-coupled; Dianova, Hamburg) was diluted 1/200 in incubation solution and likewise incubated with the fixed cells at 37° C. for one hour. After three further washing steps with PBS at room temperature for 5 min each time, and a brief immersion in deionized water, the preparations were covered with a layer of Histosafe (Linaris, Wertheim-Bettingen) and applied to slides. Evaluation took place under a microscope (Axiovert 100S, Cy3 filter set, Zeiss, Göttingen).
Thus, for quantitative evaluation of these stimulation experiments, the recruitment of DCMAG-1 into the sarcomere was measured and categorized as follows: […]

The subject of a further assay is Rat cardiomyocytes. As to the kind of experiment: Localization of DCMAG-1 after PMA or triple stimulation (colocalization with α-actinin / MHC). The conditions noted are these: double staining with α-actinin or MHC. The protocol:
Since PMA brings about translocation of DCMAG-1 into the sarcomeres just like activation of three signal transduction pathways via their receptors, the sarcomeric structures into which DCMAG-1 was translocated with PMA or triple stimulation was investigated. Colocalization experiments were carried out for this purpose. Rat cardiomyocytes were seeded as described above on cover glasses, and correspondingly stimulated, fixed and stained. With the stains, anti-DCMAG-1 antibody (polyclonal) was mixed with either monoclonal α-actinin (Sigma, 1:500) or monoclonal anti-myosin (heavy chain, MHC, Sigma, 1:500). The secondary antibodies used were FITC-anti-mouse (1:250) and Texas Red-anti-rabbit (1:50; both from Dianova).
Evaluation took place with the aid of a fluorescence microscope, a Fuji-CCD camera and Aida software or with the aid of a confocal microscope (Pascal from Zeiss) and LSM software (Zeiss).

For assay [3], the system named is neonatal rat cardiomyocytes. Kind of assay: Stimulation of neonatal cardiomyocytes by phorbol ester, DCMAG-1 localization visually classified and counted. The following applies: for % dotted pattern / % filamentous pattern / % in the sarcomere: 48 hours, ±SEM. The protocol:
In these experiments, the cardiomyocytes were prepared as described above and seeded onto cover glasses. Stimulation with various concentrations of PMA was carried out for 48 hours, and the cells were fixed, stained as described above and investigated for DCMAG-1 translocation. The cells were visually classified and counted.

Setting [4] is: single dosage: PE 100 μM, LIF 1 ng/ml, ET-1 10 nM, ISO 10 μM, IN 100 nM.

In the case of `Cn1c2ccccc2c2c3c(c4c5ccccc5n(CCC#N)c4c21)CNC3=O` [Gö, Gö 6976], in assay [1], the “effect on translocation of DCMAG-1 into the sarcomere (in words)” value is “reducing the translocation”, the “% dotted pattern” value worked out at 29.0 ± 2.1%, the “% filamentous pattern” value stood at 49.0 ± 0.0% and the “% in Z-bands” value amounted to 22.0 ± 2.1%.
As to `CC(C)NCC(O)c1ccc(O)c(O)c1` (stereo not drawn) [ISO, isoproterenol], the “Sarcomere (recruitment of DCMAG-1), 1 × stimulation” value (“Sarcomere … 1 × stimulation” for short) in assay [2] (2 × single dosage) was “(−) (fewer than 2 cells per cover glass)”; in assay [2] (3 × single dosage) it was “(+) (2 to 5 cells per cover glass)”; in assay [2] (4 × single dosage), “(+) (2 to 5 cells per cover glass)”; in assay [2] (5 × single dosage), “(+) (2 to 5 cells per cover glass)”; in assay [2] (setting [4]), “(−) (fewer than 2 cells per cover glass)”. Also, in assay [2] (ISO: high concentrations), the “recruitment of DCMAG-1 into the sarcomere (in words, summary of Table 1)” value is “slight effect”.
With `O=c1cc(N2CCOCC2)oc2c(-c3ccccc3)cccc12` [LY, LY294002], in assay [1], the “% dotted pattern” value was 46.6 ± 5.3%, the “% filamentous pattern” value stood at 41.2 ± 4.1% and the “% in Z-bands” value was 11.3 ± 2.0%.
Take `COc1cccc(-c2cc(=O)c3ccccc3o2)c1N` [PD, PD98059]: in assay [1], the “effect on translocation of DCMAG-1 into the sarcomere (in words)” value was “reducing the translocation”, the “% dotted pattern” value amounted to 58.5 ± 10.7%, the “% filamentous pattern” value came out at 31.6 ± 7.4% and the “% in Z-bands” value worked out at 10.1 ± 3.4%.
As for `CNC[C@H](O)c1cccc(O)c1` [PE, phenylephrine], the “Sarcomere … 1 × stimulation” value in assay [2] (2 × single dosage), in assay [2] (3 × single dosage), in assay [2] (4 × single dosage), in assay [2] (5 × single dosage) and in assay [2] (setting [4]) was “(−) (fewer than 2 cells per cover glass)” each time. Moreover, the “DCMAG-1 stain pattern of stimulated cells (in words)” value (from here on “DCMAG-1 stain pattern”) in assay [2] was “distributed uniformly over the sarcoplasm”.
For the compound `CCCCCCCCCCCCCC(=O)O[C@@H]1[C@@H](C)[C@@]2(O)[C@@H](C=C(CO)C[C@]3(O)C(=O)C(C)=C[C@@H]23)[C@@H]2C(C)(C)[C@]12OC(C)=O` [PMA, phorbol myristate acetate], the “sarcomeric structure into which DCMAG-1 is translocated” value with Rat cardiomyocytes is given as “translocates into the M-line”. Besides, in assay [3] (1 nM PMA), the “translocation of DCMAG-1 protein (in words)” value is “translocated into the sarcomere”, the “% dotted pattern” value is 46.0 ± 2.0%, the “% filamentous pattern” value was determined as 20.0 ± 1.0% and the “% in the sarcomere” value is 34.0 ± 3.0%. Also, in assay [3] (100 nM PMA), the “% dotted pattern” value turned out to be 47.0 ± 4.0%, the “% filamentous pattern” value came to 13.0 ± 2.0% and the “% in the sarcomere” value is given as 40.0 ± 2.0%.
Consider `C[S+]([O-])c1ccc(-c2nc(-c3ccncc3)c(-c3ccc(F)cc3)[nH]2)cc1` (stereo not drawn) [SB, SB 203580], for which, in assay [1], the “% dotted pattern” value turned out to be 22.5 ± 5.3%, the “% filamentous pattern” value was 35.5 ± 0.3% and the “% in Z-bands” value is reported as 41.0 ± 4.9%.
On to “ET-1: hormone / signal molecule stimulating the ETA and ETB endothelin receptors (CSCSSLMDKECVYFCHLDIIW; not fully specified (bridges); ends and bridges not checked; UniProt P05305 53-73, looked up)”, for which the “Sarcomere … 1 × stimulation” value in assay [2] (2 × single dosage), in assay [2] (3 × single dosage), in assay [2] (4 × single dosage) and in assay [2] (setting [4]) was “(−) (fewer than 2 cells per cover glass)” each time. The “DCMAG-1 stain pattern” value in assay [2] was “filamentous structures”.
With “LIF: cytokine acting via the LIF receptor, assigned to the interleukin-6 family”, the “Sarcomere … 1 × stimulation” value in assay [2] (2 × single dosage) and in assay [2] (setting [4]) was “(−) (fewer than 2 cells per cover glass)” each time. For the same compound, in assay [2], the “DCMAG-1 stain pattern” value is recorded as “distributed uniformly over the sarcoplasm”. For the same compound, the “shape of stimulated cells” value in assay [2] (single stimulation) is “elongate shape”.
As for insulin, the “Sarcomere … 1 × stimulation” value in assay [2] (2 × single dosage) and in assay [2] (setting [4]) was “(−) (fewer than 2 cells per cover glass)” each time.
